Reference: publication PMC9862026, “In Vivo Toxicity, Redox-Modulating Capacity and Intestinal Permeability of Novel Aroylhydrazone Derivatives as Anti-Tuberculosis Agents” (Pharmaceutics, 2022)

Columns and labels:
male Jcl:ICR mice [1] = assay: Sub-acute toxicity, 14 days oral: serum biochemical parameters; assay type: in vivo; details: 50 mg/kg oral
Experimental: (§1) The sub-acute toxicity effects were assessed after repeated (14 days) oral administration to male mice. […] The experiments were performed with male Jcl: ICR mice at the same age of 6 weeks and weighing approximately 30–35 g, in which the substances were administered daily for 14 days orally with a gastric tube at approximately the same time of the day. The compounds were solubilized with Tween 80 (0.1%) in distilled water and administered orally in a volume of 0.1 mL per 10.0 g. Animals were observed daily for behavioral changes and signs of toxicity. All results were compared with the positive control isoniazid (INH).
(§2) Serum biochemical parameters were assessed as follows.

[2] = tested on: Glutathione peroxidase in the liver supernatant; assay: Glutathione peroxidase activity in liver supernatant; assay type: in vivo, mice; details: 50 mg/kg oral, 14 days
Experimental: as §2
The Glutathione Peroxidase Cellular Activity Assay Kit (Cat. No. CGP1) and Glutathione Reductase Assay Kit (Cat. No. GRSA) were used to measure the activities of glutathione-related enzymes.

kidney of mice = assay: Pathomorphological evaluation of kidney; assay type: in vivo; details: 50 mg/kg oral, 14 days
Experimental: (§3) Tissues from the liver, kidney and small intestine of the mice from all groups were collected post-mortem and fixed in 10% buffered formalin for 48 h. fixed tissues were processed according to the classical paraffin method. The cutting of the paraffin blocks was performed using a paraffin rotary microtome Leica RM 2255 at a slice thickness of 5 µm. The sections were stained with hematoxylin and eosin (H&E). Histological changes were examined and imaged with a Leica DM2500 light microscope equipped with a Leica MC120HD digital camera and also with Euromex BioBlue (Belgium) digital camera

[3] = tested on: SOD in the liver supernatant; assay: SOD activity in liver supernatant; assay type: in vivo, mice; details: 50 mg/kg oral, 14 days
Experimental: as §2
SOD activity was measured by the method of Beauchamp and Fridovich. Superoxide anion radicals generated photochemically for 7 min, reduced nitro blue tetrazolium (NBT) obtaining insoluble formazan in violet color. The reduction of NBT inhibition in the presence of different enzyme concentrations was read at 560 nm vs. control of reaction mixture. The amount of enzyme performing 50% inhibition of NBT reduction is accepted as a unit of activity (U/mg protein).

small intestine of mice = assay: Pathomorphological evaluation of small intestine; assay type: in vivo; details: 50 mg/kg oral, 14 days
Experimental: as §3

[4] = GIT PAMPA intestinal permeability (Double-Sink protocol); assay type: in vitro ADME
Experimental: The intestinal permeability of isoniazid and the newly synthesized derivatives was measured by PAMPA Permeability Analyzer (pION Inc., Billerica, MA, USA) following the Double-Sink™ Protocol. PAMPA assay kits were purchased from pION Inc. According to the protocol, the donor compartment of the “sandwich” is loaded with compound solutions adjusted to three different pH values of 5.0, 6.2, and 7.4. The acceptor wells are filled with an ASB of fixed pH 7.4, containing chemical scavengers that simulate the effect of serum proteins. In the central circulation, pH 7.4 is constantly maintained, and the blood flow, as well as the serum proteins, support the one-directional process of absorption. Reference spectra (ketoprofen, antipyrine, and ranitidine) were used to assess the transfer of compounds from the donor to the acceptor phase. The permeation ability was estimated based on permeability coefficient values Pe (10^−6 cm/s), presented in logarithmic terms (−logPe). Values of −logPe < 5 were accepted as indicative of highly permeable compounds. When −logPe acquired values between 5 and 6, compounds were considered as medium permeable, and if −logPe > 6–as low permeable. Experiments were performed in triplicate and permeation coefficients Pe (−logPe values, respectively) are calculated using PAMPA Explorer Command Software (Version 3.8).

[5] = tested on: MDA in the liver homogenate; assay: Endogenous MDA (spontaneous lipid peroxidation) in liver homogenate; details: 50 mg/kg oral, 14 days; vs controls
Experimental: On day 14, the animals were anesthetized with ketamine/ xylazine and decapitated. […] Livers were taken to assess oxidative stress and antioxidant status in the study groups.
For the in vivo experiments (spontaneous lipid peroxidation) the postnuclear homogenates of the liver (mg protein/mL) in 0.15 M KCl—10 mM potassium phosphate buffer, pH 7.2, were heated for 15 min at 100 °C in the presence of 40% TCA + 5N HCl + 2% thiobarbituric acid (2:1:2 v/v) for color developing. After cooling and centrifugation, the absorbance was read at 532 nm against dd H2O as blank. The values were expressed in nmoles malondialdehyde (MDA) per mg protein, with a molar extinction coefficient of 1.56 × 10^−5 M^−1cm^−1.
male Jcl:ICR mice [6] = assay: Sub-acute toxicity, 14 days oral: complete blood count; assay type: in vivo; details: 50 mg/kg oral
Experimental: as §1, §2

[7] = tested on: GSH in the liver homogenate; assay: Total glutathione in liver homogenate; assay type: in vivo, mice; details: 50 mg/kg oral, 14 days
Experimental: as §2
According to Rahman et al. total glutathione (tGSH) concentration was determined. In the reaction between GSH and 5,5′-dithiobis-2-nitrobenzoic acid (DTNB), the rate of formation of colored substance, 5′-thio-2-nitrobenzoic acid (TNB), is proportional to the concentration of tGSH in the sample. The maximal absorption of colored TNB is at 412 nm. The concentration of tGSH was calculated using oxidized glutathione as a reference standard and was expressed as ng/mg protein.

liver of mice = assay: Pathomorphological evaluation of liver; assay type: in vivo; details: 50 mg/kg oral, 14 days
Experimental: as §3

**Q.** With NNC(=O)c1ccncc1 [INH, isoniazid, reference compound] as the compound, how does the “decrease of albumin compared to controls” value (male Jcl:ICR mice [1]) read?
**A.** 23%

**Q.** And the “decrease of total protein compared to controls” value (male Jcl:ICR mice [1])?
**A.** 26%

**Q.** And the “direct bilirubin higher than controls” value (male Jcl:ICR mice [1])?
**A.** 48%

**Q.** And the “increase of ALAT compared to control animals” value (male Jcl:ICR mice [1])?
**A.** 67%

**Q.** What about the “increase of ASAT compared to control animals” value (male Jcl:ICR mice [1]) of the same compound?
**A.** 52%

**Q.** What about the “increase of creatinine compared to controls” value (male Jcl:ICR mice [1]) of the same compound?
**A.** 29%

**Q.** What about the “increase of urea compared to controls” value (male Jcl:ICR mice [1]) of the same compound?
**A.** 49%

**Q.** And the “total bilirubin higher than controls” value (male Jcl:ICR mice [1])?
**A.** 40%

**Q.** What about the ALAT (male Jcl:ICR mice [1]; serum) of the same compound?
**A.** 96.6 ± 3.1 U/L

**Q.** What about the ALB (male Jcl:ICR mice [1]; serum) of the same compound?
**A.** 21.6 ± 1.7 g/L

**Q.** What about the ASAT (male Jcl:ICR mice [1]; serum) of the same compound?
**A.** 126 ± 5.2 U/L

**Q.** And the CREAT (male Jcl:ICR mice [1]; serum)?
**A.** 126.6 ± 8.2 µmol/L

**Q.** And the D-Bil (male Jcl:ICR mice [1]; serum)?
**A.** 6.5 ± 0.44 µmol/L

**Q.** And the GLU (male Jcl:ICR mice [1]; serum)?
**A.** 6.4 ± 0.47 mmol/L

**Q.** What about the T-Bil (male Jcl:ICR mice [1]; serum) of the same compound?
**A.** 12.0 ± 0.38 µmol/L

**Q.** And the TP (male Jcl:ICR mice [1]; serum)?
**A.** 43.2 ± 3.1 g/L

**Q.** And the UA (male Jcl:ICR mice [1]; serum)?
**A.** 196 ± 20.7 µmol/L

**Q.** And the UREA (male Jcl:ICR mice [1]; serum)?
**A.** 13.6 ± 0.36 mmol/L

**Q.** What about the “increase of the activity of GPx compared to controls” value [2] of the same compound?
**A.** 35%

**Q.** What about the “Pathomorphological findings in the kidney” value (kidney of mice) of the same compound?
**A.** the curved parts of the distal tubules have a lower upholstered epithelium, wide luminal segments, and preserved histological structure

**Q.** What about the “increase of the activity of SOD in liver” value [3] of the same compound?
**A.** 25%

**Q.** And the “Pathomorphological findings in the small intestine” value (small intestine of mice)?
**A.** there were no defects in the epithelium, reaching and exceeding the muscular layer of the epithelium

**Q.** What about the villous dullness score (small intestine of mice) of the same compound?
**A.** 1

**Q.** What about the “−logPe, GIT PAMPA” value ([4]; at the given experimental conditions (all tested pH), impermeable) of the same compound?
**A.** > 6

**Q.** And the “−logPe, GIT PAMPA” value ([4]; donor pH = 5.0, acceptor pH 7.4, Pe in 10^−6 cm/s)?
**A.** 6.226

**Q.** And the “−logPe, GIT PAMPA” value ([4]; donor pH = 6.2, acceptor pH 7.4, Pe in 10^−6 cm/s)?
**A.** 6.591

**Q.** What about the “−logPe, GIT PAMPA” value ([4]; donor pH = 7.4, acceptor pH 7.4, Pe in 10^−6 cm/s) of the same compound?
**A.** 6.594

**Q.** What about the “increase of the level of MDA in liver homogenate” value [5] of the same compound?
**A.** more than 35%

**Q.** What about the HCT (male Jcl:ICR mice [6]) of the same compound?
**A.** 33.3 ± 2.1 %

**Q.** What about the Hgb (male Jcl:ICR mice [6]) of the same compound?
**A.** 112 ± 2.2 g/L

**Q.** What about the PLT (male Jcl:ICR mice [6]) of the same compound?
**A.** 789 ± 183 10^9/L

**Q.** And the RBC (male Jcl:ICR mice [6])?
**A.** 5.35 ± 0.2 × 10^12/L

**Q.** And the WBC (male Jcl:ICR mice [6])?
**A.** 9.9 ± 0.54 × 10^9/L

**Q.** And the “increase of leukocytes compared to controls” value (male Jcl:ICR mice [6])?
**A.** 70%

**Q.** And the “reduction in hematocrit compared to the control group” value (male Jcl:ICR mice [6])?
**A.** 20%

**Q.** And the “reduction in the level of erythrocytes compared to the control group” value (male Jcl:ICR mice [6])?
**A.** 28%

**Q.** And the “reduction in the level of hemoglobin compared to the control group” value (male Jcl:ICR mice [6])?
**A.** 21%

**Q.** What about the “level of total GSH in liver homogenate” value [7] of the same compound?
**A.** decreased the level of total GSH

**Q.** What about the glutathione deficiency ([7]; vs control levels) of the same compound?
**A.** about 30%

**Q.** And the “Lobular inflammatory process and hepatocyte loss” value (liver of mice)?
**A.** not reported

**Q.** And the “signs related to initiated fibroblastic process (organ collagenization and fibrosis)” value (liver of mice)?
**A.** No signs
